The numbers were not newly measured in US11053249B2, “Proteasome inhibiting β-lactam prodrugs useful for the treatment of cancer and neurodegenerative disorders” (Vita Api, priority 2016, dated 2021), which cites them from elsewhere.

For this data set the following is noted: Hogan & Corey, 2005, 2007.

Turning to `CC(C)C(O)[C@@]12NC(=O)[C@H](CCCl)[C@@H]1NC2=O` (stereo partly drawn) [initial β-lactam], the “experimental infrared C═O stretching frequency” value was 1756 cm⁻¹.
